Experiments:
morningglory = experiment: Test B pre-/postemergence herbicide test; assay type: in vivo, Ipomoea coccinea; conditions: for Morningglory plant response rating (0 to 100 scale) / Plant response rating, Morningglory: preemergence; for Morningglory plant response rating: postemergence
Method in brief: (§1)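 Test chemicals in a non-phytotoxic solvent mixture with surfactant were applied preemergence to seeded species and postemergence to plants 2-18 cm tall (1- to 4-leaf stage); rice and barnyardgrass were also tested in a flooded paddy at the 2-leaf stage. Visual rating versus controls after 13-15 days in greenhouse, scale 0 (no effect) to 100 (complete control).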

wheat = experiment: Test B postemergence herbicide test; assay type: in vivo, Triticum aestivum; parameters: key to Wheat plant response rating: 0 = no effect, 100 = complete control; conditions: postemergence
Method in brief: (§2)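 Greenhouse test; postemergence application to plants at 1–4 leaves (2–18 cm); paddy species at 2 leaves; evaluated visually vs controls at 13–15 days; scale 0–100 (100 = complete control).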

barnyardgrass [1] = experiment: Test B pre-/postemergence herbicide test; assay type: in vivo, Echinochloa crus-galli; conditions: for Barnyardgrass plant response rating (0 to 100 scale) / Plant response rating, Barnyardgrass: preemergence; for Barnyardgrass plant response rating: postemergence, scale 0 (no effect) to 100 (complete control)
Method in brief: as §1

pigweed = experiment: Test B pre-/postemergence herbicide test; assay type: in vivo, Amaranthus retroflexus; conditions: for Pigweed plant response rating (0 to 100 scale) / Plant response rating, Pigweed: preemergence; for Pigweed plant response rating: postemergence
Method in brief: as §1

rice [2] = experiment: Test B flooded paddy test; assay type: in vivo, Oryza sativa; conditions: 1000 g ai/ha, scale 0 to 100 (0 no effect, 100 complete control)
Method in brief: (§3)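 Paddy species grown to the 2-leaf stage under flooding; blackgrass sprayed postemergence at 2–18 cm (1- to 4-leaf stage). Plants kept in a greenhouse for 13 to 15 days, then visually rated against controls on 0 (no effect) to 100 (complete control).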

blackgrass = experiment: Test B postemergence herbicide test; assay type: in vivo, Alopecurus myosuroides; conditions: postemergence, visual rating, scale 0 (no effect) to 100 (complete control)
Method in brief: as §3

barnyardgrass [3] = experiment: Test B flooded paddy test; assay type: in vivo, Echinochloa crus-galli; conditions: 1000 g ai/ha, scale 0 to 100 (0 no effect, 100 complete control)
Method in brief: as §3

wild oat = experiment: Test B postemergence herbicide test; assay type: in vivo, Avena fatua; conditions: postemergence
Method in brief: as §2

rice [4] = experiment: Test B pre-/postemergence herbicide test; assay type: in vivo, Oryza sativa; conditions: preemergence; for Rice plant response rating (0 to 100 scale): 125 g ai/ha; for Plant response rating, Rice: 500 g ai/ha
Method in brief: as §1

Surinam grass = experiment: Test B pre-/postemergence herbicide test; assay type: in vivo, Urochloa decumbens; conditions: for Surinam Grass plant response rating (0 to 100 scale) / Plant response rating, Surinam Grass: preemergence; for Surinam Grass plant response rating: postemergence
Method in brief: as §1

lambsquarters = experiment: Test B pre-/postemergence herbicide test; assay type: in vivo, Chenopodium album; conditions: for Lambsquarters plant response rating (0 to 100 scale): 0 = no effect, 100 = complete control; for Lambsquarters plant response rating: postemergence
Method in brief: as §1

velvetleaf = experiment: Test B pre-/postemergence herbicide test; assay type: in vivo, Abutilon theophrasti; conditions: for Velvetleaf plant response rating (0 to 100 scale) / Plant response rating, Velvetleaf: preemergence; for Velvetleaf plant response rating: postemergence
Method in brief: as §1

corn = experiment: Test B pre-/postemergence herbicide test; assay type: in vivo, Zea mays; conditions: for Corn plant response rating (0 to 100 scale) / Plant response rating, Corn: preemergence; for Corn plant response rating: postemergence
Method in brief: as §1

giant foxtail = experiment: Test B pre-/postemergence herbicide test; assay type: in vivo, Setaria faberi; conditions: for Foxtail, Giant plant response rating (0 to 100 scale) / Plant response rating, Foxtail, Giant: preemergence; for Foxtail, Giant plant response rating: postemergence
Method in brief: as §1

[5] = test system: small flower umbrella sedge; experiment: Test B flooded paddy test; assay type: in vivo, Cyperus difformis; conditions: 1000 g ai/ha, scale 0 to 100 (0 no effect, 100 complete control)
Method in brief: as §3

ducksalad = experiment: Test B flooded paddy test; assay type: in vivo, Heteranthera limosa; conditions: 1000 g ai/ha, scale 0 to 100 (0 no effect, 100 complete control)
Method in brief: as §3

large crabgrass = experiment: Test B pre-/postemergence herbicide test; assay type: in vivo, Digitaria sanguinalis; conditions: for Crabgrass, Large plant response rating (0 to 100 scale) / Plant response rating, Crabgrass, Large: preemergence; for Crabgrass, Large plant response rating: postemergence
Method in brief: as §1

cocklebur = experiment: Test B pre-/postemergence herbicide test; assay type: in vivo, Xanthium strumarium; conditions: for Cocklebur plant response rating (0 to 100 scale) / Plant response rating, Cocklebur: preemergence; for Cocklebur plant response rating: postemergence, scale 0 (no effect) to 100 (complete control)
Method in brief: as §1

[6] = 125 g ai/ha, 0 = no effect, 100 = complete control
[7] = 500 g ai/ha, visual rating 0-100, 0 no effect, 100 complete control
[8] = 125 g ai/ha, visual rating, scale 0 (no effect) to 100 (complete control)
[9] = 500 g ai/ha, visual rating, scale 0 (no effect) to 100 (complete control)
[10] = 0 = no effect, 100 = complete control
[11] = 500 g ai/ha, visual rating, 0 = no effect, 100 = complete control
[12] = 500 g ai/ha, scale 0 to 100, 0 is no effect, 100 is complete control

CCN(CC)C(=O)c1cccc(NC(=O)c2cn(C(C)(C)C)nc2C)c1 [Compound 184]
Morningglory plant response rating (0 to 100 scale) (morningglory; [6]): 10 | Plant response rating, Morningglory (morningglory; [7]): 50 | Morningglory plant response rating (morningglory; [8]): 0 | Morningglory plant response rating (morningglory; [9]): 60 | Wheat plant response rating (wheat; [8]): 0 | Wheat plant response rating (wheat; [9]): 0 | Barnyardgrass plant response rating (0 to 100 scale) (barnyardgrass [1]; [6]): 0 | Plant response rating, Barnyardgrass (barnyardgrass [1]; [7]): 60 | Barnyardgrass plant response rating (barnyardgrass [1]; 125 g ai/ha, visual rating): 0 | Barnyardgrass plant response rating (barnyardgrass [1]; 500 g ai/ha, visual rating): 0 | Pigweed plant response rating (0 to 100 scale) (pigweed; [6]): 100 | Plant response rating, Pigweed (pigweed; [7]): 100 | Pigweed plant response rating (pigweed; [8]): 20 | Pigweed plant response rating (pigweed; [9]): 60 | Rice plant response rating (rice [2]; visual rating, 13 to 15 days): 0 | Blackgrass plant response rating (blackgrass; 125 g ai/ha): 0 | Blackgrass plant response rating (blackgrass; 500 g ai/ha): 0 | Barnyardgrass plant response rating (barnyardgrass [3]; visual rating, 13 to 15 days): 0 | Oat, Wild plant response rating (wild oat; [8]): 20 | Oat, Wild plant response rating (wild oat; [9]): 30 | Rice plant response rating (0 to 100 scale) (rice [4]; [10]): 0 | Plant response rating, Rice (rice [4]; visual rating 0-100, 0 no effect, 100 complete control): 0 | Surinam Grass plant response rating (0 to 100 scale) (Surinam grass; [6]): 0 | Plant response rating, Surinam Grass (Surinam grass; [7]): 30 | Surinam Grass plant response rating (Surinam grass; [8]): 10 | Surinam Grass plant response rating (Surinam grass; [9]): 20 | Lambsquarters plant response rating (0 to 100 scale) (lambsquarters; 125 g ai/ha, preemergence): 50 | Plant response rating, Lambsquarters (lambsquarters; 500 g ai/ha, visual rating 0-100, 0 no effect, 100 complete control, preemergence): 80 | Lambsquarters plant response rating (lambsquarters; [8]): 60 | Lambsquarters plant response rating (lambsquarters; [9]): 70 | Velvetleaf plant response rating (0 to 100 scale) (velvetleaf; [6]): 10 | Plant response rating, Velvetleaf (velvetleaf; [7]): 50 | Velvetleaf plant response rating (velvetleaf; [8]): 30 | Velvetleaf plant response rating (velvetleaf; [9]): 60 | Corn plant response rating (0 to 100 scale) (corn; [6]): 0 | Plant response rating, Corn (corn; [7]): 0 | Corn plant response rating (corn; [8]): 20 | Corn plant response rating (corn; [9]): 30 | Foxtail, Giant plant response rating (0 to 100 scale) (giant foxtail; [6]): 0 | Plant response rating, Foxtail, Giant (giant foxtail; [7]): 70 | Foxtail, Giant plant response rating (giant foxtail; [8]): 30 | Foxtail, Giant plant response rating (giant foxtail; [9]): 40 | Sedge, Umbrella plant response rating ([5]; visual rating, 13 to 15 days): 30 | Ducksalad plant response rating (ducksalad; visual rating, 13 to 15 days): 0 | Crabgrass, Large plant response rating (0 to 100 scale) (large crabgrass; [6]): 30 | Plant response rating, Crabgrass, Large (large crabgrass; [7]): 100 | Crabgrass, Large plant response rating (large crabgrass; [8]): 20 | Crabgrass, Large plant response rating (large crabgrass; [9]): 30 | Cocklebur plant response rating (0 to 100 scale) (cocklebur; [6]): 0 | Plant response rating, Cocklebur (cocklebur; [7]): 0 | Cocklebur plant response rating (cocklebur; 125 g ai/ha, visual rating): 30 | Cocklebur plant response rating (cocklebur; 500 g ai/ha, visual rating): 60

CCCOC(=O)c1cc(NC(=O)c2cc(C(C)(C)C)nn2CC)c(F)cc1F [Compound 249]
Morningglory plant response rating (0 to 100 scale) (morningglory; [6]): 0 | Plant response rating, Morningglory (morningglory; [11]): 10 | Morningglory plant response rating (morningglory; [8]): 20 | Morningglory plant response rating (morningglory; [12]): 30 | Wheat plant response rating (wheat; [8]): 30 | Wheat plant response rating (wheat; [12]): 30 | Barnyardgrass plant response rating (0 to 100 scale) (barnyardgrass [1]; [6]): 0 | Plant response rating, Barnyardgrass (barnyardgrass [1]; [11]): 0 | Barnyardgrass plant response rating (barnyardgrass [1]; 125 g ai/ha, visual rating): 10 | Barnyardgrass plant response rating (barnyardgrass [1]; 500 g ai/ha, visual rating): 20 | Pigweed plant response rating (0 to 100 scale) (pigweed; [6]): 0 | Plant response rating, Pigweed (pigweed; [11]): 0 | Pigweed plant response rating (pigweed; [8]): 20 | Pigweed plant response rating (pigweed; [12]): 80 | Rice plant response rating (rice [2]): 0 | Blackgrass plant response rating (blackgrass; 125 g ai/ha): 20 | Blackgrass plant response rating (blackgrass; 500 g ai/ha): 30 | Barnyardgrass plant response rating (barnyardgrass [3]): 0 | Oat, Wild plant response rating (wild oat; [8]): 30 | Oat, Wild plant response rating (wild oat; [12]): 40 | Rice plant response rating (0 to 100 scale) (rice [4]; [10]): 0 | Plant response rating, Rice (rice [4]; visual rating, 0 = no effect, 100 = complete control): 0 | Surinam Grass plant response rating (0 to 100 scale) (Surinam grass; [6]): 0 | Plant response rating, Surinam Grass (Surinam grass; [11]): 20 | Surinam Grass plant response rating (Surinam grass; [8]): 10 | Surinam Grass plant response rating (Surinam grass; [12]): 30 | Lambsquarters plant response rating (0 to 100 scale) (lambsquarters; 125 g ai/ha, preemergence): 0 | Lambsquarters plant response rating (lambsquarters; [8]): 10 | Lambsquarters plant response rating (lambsquarters; [12]): 20 | Velvetleaf plant response rating (0 to 100 scale) (velvetleaf; [6]): 0 | Plant response rating, Velvetleaf (velvetleaf; [11]): 0 | Velvetleaf plant response rating (velvetleaf; [8]): 10 | Velvetleaf plant response rating (velvetleaf; [12]): 20 | Corn plant response rating (0 to 100 scale) (corn; [6]): 0 | Plant response rating, Corn (corn; [11]): 0 | Corn plant response rating (corn; [8]): 10 | Corn plant response rating (corn; [12]): 20 | Foxtail, Giant plant response rating (0 to 100 scale) (giant foxtail; [6]): 0 | Plant response rating, Foxtail, Giant (giant foxtail; [11]): 0 | Foxtail, Giant plant response rating (giant foxtail; [8]): 20 | Foxtail, Giant plant response rating (giant foxtail; [12]): 30 | Sedge, Umbrella plant response rating [5]: 30 | Ducksalad plant response rating (ducksalad): 0 | Crabgrass, Large plant response rating (0 to 100 scale) (large crabgrass; [6]): 0 | Plant response rating, Crabgrass, Large (large crabgrass; [11]): 0 | Crabgrass, Large plant response rating (large crabgrass; [8]): 10 | Crabgrass, Large plant response rating (large crabgrass; [12]): 30 | Cocklebur plant response rating (0 to 100 scale) (cocklebur; [6]): 0 | Plant response rating, Cocklebur (cocklebur; [11]): 0 | Cocklebur plant response rating (cocklebur; 125 g ai/ha, visual rating): 30 | Cocklebur plant response rating (cocklebur; 500 g ai/ha, visual rating): 30

From US20060069132A1, “Azolecarboxamide herbicides” (priority 2004, published 2006)
